Data as given in patent publication US5594009A, “Fused pyrrolocarbazoles” (priority 1995, dated 1997).

Columns and labels:
[1] = system: choline acetyltransferase (ChAT) activity in dissociated rat embryonic spinal cord culture; assay: Spinal Cord ChAT Activity Assay; assay type: cell-based; conditions: ChAT measured after 48 hours
Description: In these assays, a fused pyrrolocarbazole was directly added to a dissociated spinal cord culture. […] The fused pyrrolocarbazole was added on the same day the dissociated spinal cord cell culture was initiated.
Methods: Fetal rat spinal cord cells were dissociated, and experiments were performed as described (Smith et al., J. Cell Biology., 101:1608-1621 (1985); Glicksman et al., J. Neurochem. 61:210-221 (1993)). Dissociated cells were prepared from spinal cords dissected from rats (embryonic day 14-15) by standard trypsin dissociation techniques (Smith et al., J. Cell Biology 10:1608-1621 (1985)). Cells were plated at 6×10^5 cells/cm^2 on poly-1-ornithine coated plastic tissue culture wells in serum-free N2 medium supplemented with 0.05% bovine serum albumin (BSA) (Bottenstein et al., PNAS USA 514-517 (1979)). Cultures were incubated at 37° C. in a humidified atmosphere of 5% CO2 /95% air for 48 hours. ChAT activity was measured after 2 days it vitro using a modification of the Fonnum procedure (Fonnum, J. Neurochem. 24:407-409 (1975)) according to McManaman et al. and Glicksman et al. (McManaman et al., Developmental Biology 125:311-320 (1988); Glicksman et al., J. Neurochem. 61:210-221 (1993)).

[2] = system: ChAT activity of basal forebrain cultures; assay: Basal Forebrain ChAT Activity Assay; assay type: cell-based, rat
Description: Fused pyrrolocarbazoles were tested for the ability to increase ChAT activity of basal forebrain cultures.
Methods: The basal forebrain was dissected from rat embryos (day 17 or 18 embryos) and the cells were dissociated with a neutral protease (Dispase™, Collaborative Research). Neurons were plated at a density of 5×10^4 cells/well (1.5×10^5 cells/cm^2) in poly-1-ornithine and laminin coated plates. Cells were cultured in serum-free N2 medium containing 0.05% BSA at 37° C. in a humidified atmosphere, 5% CO2 /95% air. ChAT activity was assessed 5 days after plating by using the ChAT assay as described in Example III(A)(1).

Compound | Spinal Cord ChAT Activity, % of Control, untreated cultures [1] | further results
2-Chloro-6H, 7H, 12H, 13H-indeno[2,3-a]pyrrolo[3,4-c]carbazole-5(5H)one and 2-chloro-5H, 6H, 12H, 13H-indeno[2,3-a]pyrrolo[3,4-c]carbazole-7(7H)one [Compound Ia-2] | 161 % of Control | –
3-Fluoro6H, 7H, 12H, 13H-indeno[2,3-a]pyrrolo[3,4-c]carbazole-5(5H)one and 3-fluoro-5H, 6H, 12H, 13H-indeno[2,3-a]pyrrolo[3,4-c]carbazole-7((7H)one [Compound I-8] | 200 % of Control | –
Cn1c2ccccc2c2c3c(c4c(c21)Cc1ccccc1-4)C(=O)NC3=O [Compound I-4, 13-Methyl-6H, 12H-indeno[2,3-a]pyrrolo[3,4-c]carbazole-5,7(5H, 7H)-dione] | 124 % of Control | –
O=C1NC(=O)c2c1c1c(c3[nH]c4ccc(Cl)cc4c23)Cc2ccccc2-1 [Compound I-10, 3-Chloro-6H , 12H, 13H-indeno[2,3-a]pyrrolo[3,4-c]carbazole-5,7(5H, 7H)-dione] | 189 % of Control | –
COc1ccc2[nH]c3c4c(c5c(c3c2c1)CNC5=O)-c1ccccc1C4 [Compound I-13, 3-Methoxy-5H, 6H, 12H, 13H-Indeno[2,3-a]pyrrolo[3,4-c]carbazole-7(7H)one] | 217 % of Control | –
O=C1NCc2c3c(c4[nH]c5ccc(Br)cc5c4c21)CCc1ccccc1-3 [Compound I-18, 3-Bromo-12,13-dihydro-6H, 7H, 14H-naphthyl[3,4-a]pyrrolo[3,4-c]carbazole-5(5H)one] | 133 % of Control | –
O=C1NCc2c1c1c(c3[nH]c4ccc(Br)cc4c23)CCc2ccccc2-1 [Compound I-19, 3-Bromo-12,13-Dihydro-5H, 6H, 14H-naphthyl[3,4-a]pyrrolo[3,4-c]carbazole-7(7H)one] | 203 % of Control | –
CCOC(=O)C=Cc1ccc2[nH]c3c4c(c5c(c3c2c1)CNC5=O)-c1ccccc1C4 [Compound I-25, 3-(3-Ethyl propenoate)-5H,6H,12H,13H-indeno[2,3-a]pyrrolo[3,4-c]carbazole-7(7H)one] | 168 % of Control | –
O=C1NCc2c1c1c(c3[nH]c4ccc(-c5ccccc5)cc4c23)Cc2ccccc2-1 [Compound I-27, 3-Phenyl-5H,6H,12H,13H-indeno[2,3-a]pyrrolo[3,4-c]carbazole-7(7H)one] | 120 % of Control | –
O=c1[nH]c(=O)c2c1c1c3ccccc3[nH]c1c1c(=O)c3ccccc3c12 [Compound I-28, 12-Oxo-6H,13H-indeno[2,3-a]pyrrolo[3,4-c]carbazole-5,7(5H,7H)dione] | < 120 % of Control | –
O=C1NCc2c1c1c(c3[nH]c4ccc(C=Cc5ccncc5)cc4c23)Cc2ccccc2-1 [Compound I-33, 3-(2-(4-Pyridyl)ethenyl)-5H,6H,12H,13H-indeno[2,3-a]pyrrolo[3,4-c]carbazole-7(7H)-one] | 144 % of Control | –
N#CC=Cc1ccc2[nH]c3c4c(c5c(c3c2c1)CNC5=O)-c1ccccc1C4 [Compound I-35, 3-(2-Cyanoethenyl)-5H,6H,12H,13H-indeno[2,3-a]pyrrolo[3,4-c]carbazole-7(7H)one] | 121 % of Control | –
C#Cc1ccc2[nH]c3c4c(c5c(c3c2c1)CNC5=O)-c1ccccc1C4 [Compound I-36, 3-Ethynyl-5H,6H,12H,13H-indeno[2,3-a]pyrrolo[3,4-c]carbazole-7(7H)one] | 167 % of Control | ChAT Activity (% of Control) ([2]; 1000 nM): inactive; activity at 0.1 µM ([2]; Rattus norvegicus, 120 h, 100 nM, read-out: ChAT Activity (% of Control)): 122%; activity at 0.25 µM ([2]; Rattus norvegicus, 120 h, 250 nM, read-out: ChAT Activity (% of Control)): 131%; activity at 0.5 µM ([2]; Rattus norvegicus, 120 h, 500 nM, read-out: ChAT Activity (% of Control)): 123%
CCCCCc1ccc2[nH]c3c4c(c5c(c3c2c1)C(=O)NC5=O)-c1ccccc1C4 [Compound I-37, 3-Pentyl-6H,12H,13H-indeno[2,3-a]pyrrolo[3,4-c]carbazole-5,7(5H,7H)dione] | < 120 % of Control | –
O=C1NC(O)c2c1c1c3ccccc3ccc1c1[nH]c3ccccc3c21 (stereo not drawn) [Compound I-38, 5-Hydroxy-12,13-dihydro-6H, 14H-naphthyl[3,4-a]pyrrolo[3,4-c]carbazole-7(7H)one] | 208 % of Control | –
O=C1NCc2c1c1c(c3[nH]c4ccc(C=CN5C(=O)c6ccccc6C5=O)cc4c23)Cc2ccccc2-1 [Compound I-39, 3-(2-(2-Phthalimido)ethenyl)-5H,6H,12H,13H-indeno[2,3-a]pyrrolo[3,4-c]carbazole-7(7H)-one] | 268 % of Control | –
O=C1NCc2c1c1c(c3[nH]c4ccc(I)cc4c23)Cc2ccccc2-1 [Compound I-40, 3-Iodo-5H, 6H, 12H, 13H-indeno[2,3-a]pyrrolo[3,4-c]carbazole-7(7H)-one] | 150 % of Control | –
O=C1NCc2c3c(c4[nH]c5ccc(C=Cc6ccccn6)cc5c4c21)Cc1ccccc1-3 [Compound I-41, 3-(2-(2-Pyridylethenyl))-6H,7H,12H,13H-indeno[2,3-a]pyrrolo[3,4-c]carbazole-5(5H)-one] | 122 % of Control | –
O=C1NCc2c1c1c3ccccc3[nH]c1c1sc3ccccc3c21 [Compound I-42, 6H, 7H, 12H-Benzo[b]thieno[2,3-a]pyrrolo[3,4-c]carbazole-5(5H)one] | 177 % of Control | –
O=C1NCc2c1c1c3ccccc3sc1c1[nH]c3ccccc3c21 [Compound I-43, 6H, 7H, 12H-Benzo[b]thieno[2,3-a]pyrrolo[3,4-c]carbazole-7(7H)one] | 138 % of Control | –
O=C1NCc2c1c1c(c3[nH]c4ccc(C=CI)cc4c23)Cc2ccccc2-1 [Compound I-44] | 127 % of Control | –
O=C1NC(=O)c2c1c1c(c3[nH]c4ccccc4c23)Cc2cc(Br)ccc2-1 [Compound Ia-3, 10-bromo-6H, 12H, 13H-indeno[2,3-a]pyrrolo[3,4-c]carbazole-5,7(5H, 7H)dione] | 138 % of Control | –
O=C1NC(=O)c2c1c1c(c3[nH]c4ccccc4c23)CCc2cc(F)ccc2-1 [Compound Ia-4, 10-Fluoro-12,13-dihydro-6H, 14H-naphthyl[3,4-a]pyrrolo[3,4-c]carbazole-5,7(5H, 7H)dione] | < 120 % of Control | –
O=C1NC(=O)c2c1c1c(c3[nH]c4ccccc4c23)CCc2cc(Br)ccc2-1 [Compound Ia-5, 10-Bromo-12,13-dihydro-6H, 14H-naphthyl[3,4,-a]pyrrolo[3,4-c]carbazole-5,7(5H, 7H)dione] | 132 % of Control | –
O=C1NC(=O)c2c1c1c(c3[nH]c4ccccc4c23)CCc2cc(C=Cc3ccccn3)ccc2-1 [Compound Ia-6] | 139 % of Control | –
O=C1NC(=O)c2c1c1c(c3[nH]c4ccccc4c23)CCc2cc(CCc3ccccn3)ccc2-1 [Compound Ia-7] | < 120 % of Control | –
Cc1cccc2c1[nH]c1c3c(c4c(c12)C(=O)NC4=O)-c1ccccc1C3 [Compound Ib-1, 1-Methyl-12H, 13H-indeno[2,3-a]pyrrolo[3,4-c]carbazole-6H-5,7(5H, 7H)-dione] | 138 % of Control | –
O=C1NC(=O)c2c1c1c(c3[nH]c4ccccc4c23)Cc2ccc(Br)cc2-1 [Compound Ib-2] | 153 % of Control | –
mixture of 13-Methyl-6H, 7H, 12H-indeno[2,3-a]pyrrolo[3,4-c]carbazole-5(5H)one and 13-methyl-5H, 6H, 12H-indeno[2,3-a]pyrrolo[3,4,-c]carbazole-7(7H)one [Compound I-5] | 137 % of Control | –
